Series [1] has as its system LoVo colon adenocarcinoma cells. The series is described as follows: MTS cytotoxicity assay, LoVo. The series is classed as cell-based, human. How it is done: (§1) Therefore, the precursor acids 2a–c and corresponding pyrrolo[1,2-b]pyridazines 5a–c,f were tested for their potential cytotoxic activity. During the assays, increasing concentrations of the compounds, ranging from […], were added for 24 h or 48 h to cancer LoVo, SK-OV-3, MCF-7, and the reference HUVEC cells, previously cultured for 24 h in 96-well flat bottom plates. […] Then, MTS reagent was added, and cells were incubated for 4 h at 37 °C in a 5% CO2 humidified atmosphere. The absorbance values were spectrophotometrically read to a Dynex ELISA reader at λ = […].
(§2) For the evaluation of the in vitro potential anti-proliferative effects of treatments with the new compounds under study against solid tumor-derived cells, several compound-mediated cytotoxicity assays were performed on three adherent tumor standardized cell lines, and normal human endothelial cells, used as control: the MCF-7 human breast adenocarcinoma and SK-OV-3 human ovary adenocarcinoma cell lines were provided from European Collection of Authenticated Cell Cultures (ECACC), while LoVo, human colorectal adenocarcinoma cell line, and HUVEC human umbilical vein endothelial cells were purchased from American Type Culture Collection (ATCC).
(§3) Adherent cells were cultivated in DMEM/F12 medium added with 2 mM L-glutamine and 10% fetal bovine serum, 100 units/mL penicillin, 100 µg/mL streptomycin (Sigma Aldrich, St. Louis, MO, USA) and incubated at 37 °C in 5% CO2 humidified atmosphere. The stock solutions for cell treatments were prepared by dissolving the synthesized compounds in a minimum amount of DMSO. Working dilutions were prepared from the stock solutions in culture medium before each treatment assay. After 24 h, when cell cultures achieved around 70% confluence, treatments were applied for various periods of time with different concentrations of synthesized compounds or oncolytic drugs, used as positive controls.
(§4) Therefore, cell cultures treated with the new compounds or oncolytic drugs for 24 h or 48 h were further subjected to a colorimetric cell viability method, the MTS assay. The absorbance of probes was read, data were calculated, and percentages of cell viability were assessed.
(§5) The evaluation of the compound-induced cytotoxicity was made using the CellTiter 96 Aqueous One Solution Cell Proliferation Assay (Promega, Madison, WI, USA), a reagent that contains both MTS (3-(4,5-dimethylthiazol-2-yl)-5-(3-carboxymethoxyphenyl)-2-(4-sulfophenyl)-2H-tetrazolium, inner salt) and PES ([…], a cationic dye with high chemical stability that binds to MTS and forms a stable solution).
(§6) Briefly, 1.5 × 10^4 cancer or normal cells were cultured in 100 µL/well for 24 h. After the culture supernatants were discarded, cells were treated for additional 24 h or 48 h with increasing concentrations of new compounds or oncolytic drugs. Following the specific treatments, in each well a volume of 20 µL of coloring mixture reagent of MTS and PES was added, and then the plates were incubated with mild agitation every 20 min for 4 h at 37 °C. The color developed during incubation was spectrophotometrically quantified at λ = 492 nm using a Dynex ELISA reader (DYNEX Technologies—MRS, Chantilly, VA, USA).
(§7) Data were expressed as percentages of cell viability of the treated cells, and were calculated and compared to the untreated cells (considered 100% viable), using the formula:Cell viability (%) = (T − B)/(U − B) × 100 where T = absorbance of treated cells, U = absorbance of untreated cells, and B = absorbance of culture medium (blank), for λ = 492 nm.
(§8) The cell viability data were expressed as the mean values ± standard deviations (SD) of three different experiments (n = 3). […] Moreover, a parallel experiment was performed in the absence of cells, with all the concentrations of the compounds being tested for their potential interference with MTS reagents; then, their absorbance values were extracted during calculations.
(Formazan colour is commonly taken as a measure of viable cells.)

Series [2] concerns SK-OV-3 ovary adenocarcinoma cells. The series is described as follows: MTS cytotoxicity assay, SK-OV-3. In kind it is cell-based, human. The protocol:
as §1, §2, §3, §4, §5, §6, §7, §8

A further series deals with Triticum aestivum L. The series is described as follows: Triticum test, phytotoxicity (main root length). In kind it is in vivo. To be noted: Triticum aestivum, 72 h; Triticum root length, 10–1000 µM, measured over three days. How it is done:
Phytobiological testing (Triticum test) was performed by the Constantinescu method which consists in determining the maximum active dilution of a compound. Depending on the duration of action, it can influence root elongation and the […] film. […] Embryonic wheat roots were obtained by germinating homogeneous wheat caryopses in Linhart pots. Then the caryopses with a main root length of 1 cm were placed in the test solutions. For the determination of the action of each compound, five dilutions in the concentration range of 10–1000 µM were obtained and 11 caryopses were placed in them. Petri dishes containing 15 mL of diluted solution were kept under constant conditions of temperature (25 °C), and humidity (60%), in the absence of light. […] The results were expressed in comparison with a 1% DMSO control.
Statistical analyses were performed using the computing and programming environment R, R, v. 4.2.1 [68], under Rstudio, v. 2022.07.2+576 “Spotted Wakerobin” for Windows (RStudio, PBC, Boston, 2022), both for the Triticum and Artemia tests. It used a parametric mixed-effects model (R package “lme4”) and a robust mixed-effects model (R package “robustlmm”), in which root length measurements (Triticum) from all three days were used as the dependent variable, whereas compound, concentration and time were treated as fixed effects, with time (day of measurement) also treated as a random effect. Assessing statistical significance for mixed-effects statistical models is controversial and complex, but as a pragmatic way of working, we have estimated p-values using the Kenward–Rogers approximation (R package “sjPlot”). A variety of R base functions and R packages were used to diagnose the regression models (“car” [72], “MASS” [73], and “gvlma” [74]). Mixed boxplot–dotplot plots were generated using the “ggplot2” package.
The “drc” R package was used to estimate IC50 values for the Triticum bioassay by nonlinear modeling. For Triticum, the relationship between root length and concentration was modeled using Weibull functions with 2, 3, or 4 parameters, depending on the data distribution, the models being selected from a range of several models with different functions and parameters, based on the Akaike’s information criterion (AIC).

Series [3] deals with Triticum vulgare root tips. Briefly: Microscopic examination of Triticum root tips (mitotic film changes). The series is classed as in vivo. Conditions: 24 h contact. How it is done: Microscopic examination of Triticum vulgare root tips followed the mitotic film changes induced by the tested compounds. Observations were made after 24 h of contact of the caryopses with the test solutions. The study was made in comparison with DMSO control maintained under the same conditions as the samples. To obtain microscopic preparations, sectioning of wheat embryonic roots was carried out at about 5 mm from the tip and stained with dilute […] according to the La Cour procedure. The examination was conducted on a Euromex oxion series 110–240 V/50–60 Hz microscope with digital camera CEMEX 5 DC 5000 C and 40× and 100× lenses with cedar oil immersion (Sigma-Aldrich St. Louis, MO, USA).

A further series has as its system Daphnia magna Straus. Briefly: Daphnia magna toxicity assay. Conditions: for toxicity on Daphnia magna / L% values (lethality): 48 h; for L% values (lethality): all tested concentrations. The series is classed as in vivo. How it is done:
(§9) Young organisms of Daphnia magna were selected according to their size from a parthenogenetic culture maintained in an artificial medium for 24 h before the bioassay. The determination was conducted in tissue culture plates with 12 wells (Greiner Bio-One, Monroe, NC, USA), with 10 organisms in each well, and a final volume of 3 mL per sample [65, 66]. As a negative control, DMSO was used at a concentration of 1%. All compounds were tested at six different concentration levels, ranging from 12.5 to 500 μg/mL. All assessments were performed in duplicate.

The test system of series [4] is MCF-7 breast adenocarcinoma cells. The series is described as follows: MTS cytotoxicity assay, MCF-7. Conditions: Homo sapiens, MCF7; for IC50: MCF-7, 48 h, read-out: IC50 MCF-7 48 h; for viability at 400 µM: MCF-7, 400 μM, 48 h, read-out: cell viability. In kind it is cell-based, human. How it is done: as §1, §2, §3, §4
as §5, with “solution). The assay is based on the ability of the metabolically active cells to reduce the yellow tetrazolium salt MTS to a compound that is soluble in culture medium, the colored formazan, followed by the spectrophotometric evaluation of its concentration.” for “solution).”
as §6, §7
The cell viability data were expressed as the mean values ± standard deviations (SD) of three different experiments (n = 3). […]

Series [5] has as its system LoVo colon adenocarcinoma cells. Briefly: MTS cytotoxicity assay, LoVo. In kind it is cell-based. To be noted: Homo sapiens, read-out: cell viability.
The nature of series [6]: Daphnia magna toxicity assay. The series is classed as in vivo. To be noted: Daphnia magna, in vivo; 48 h. The protocol: as §9
The test system of series [7] is SK-OV-3 ovary adenocarcinoma cells. Briefly: MTS cytotoxicity assay, SK-OV-3. To be noted: Homo sapiens; SK-OV-3, 400 μM, 24 h; read-out: cell viability. In kind it is cell-based.
The mark [8] stands for this setting: Homo sapiens, 24 h, read-out: IC50 LoVo 24 h.
Setting [9] is: Homo sapiens, 48 h, read-out: IC50 LoVo 48 h.
The mark [10] stands for this setting: Homo sapiens, SK-OV-3, 24 h, read-out: IC50 Sk-OV-3 24 h.
The mark [11] stands for this setting: Homo sapiens, SK-OV-3, 48 h, read-out: IC50 Sk-OV-3 48 h.

Entries after “also recorded” stand apart in the source; their conditions may differ. Where two headings read alike, the source gives them in different places.

The term IC50 denotes the midpoint of a concentration-inhibition curve. For orientation: viability means the share of living cells, or the viability signal relative to a control. By LC50 is commonly meant the concentration lethal to half of the exposed cells or organisms. High values mean lower toxicity, low ones greater toxicity.

For the molecule `N.N.[Cl][Pt][Cl]` [CisPt, cisplatin, reference compound], the 50% inhibitory concentration (IC50) in series [1] (24 h, read-out: IC50 LoVo 24 h) is 79.1 ± 4.75 µM; in series [1] (48 h, read-out: IC50 LoVo 48 h) it was 57 ± 0.95 µM; in series [2] (SK-OV-3, 24 h, read-out: IC50 Sk-OV-3 24 h), 92.2 ± 3.45 µM; in [2] (SK-OV-3, 48 h, read-out: IC50 Sk-OV-3 48 h), 78.2 ± 4.01 µM.

Turning to `CCC(C(=O)O)n1nc(-c2ccc(F)cc2)ccc1=O` (stereo not drawn) [Compound 2b, 2-[6-Oxo-3-(4-fluorophenyl)pyridazin-1-yl]butanoic acid], the concentration for half-maximal inhibition (IC50) in the series on Triticum aestivum L. was 204 µM; in [1] (setting [8]) it was not below 400 µM; in [1] (setting [9]) it was not below 400 µM; in [4], not below 400 µM; in series [2] (setting [10]), not below 400 µM; in series [2] (setting [11]) it was not below 400 µM. For the same molecule, in [3] (1000 μM), the “mitotic film / cell changes in root tips” value was “Mitoinhibition and cells with 1-3 nucleoli”. Moreover, the “toxicity on Daphnia magna” value in the series on Daphnia magna Straus is “no toxicity”. Besides, the “L% values (lethality)” value in the series on Daphnia magna Straus is “ND * (all L% values were lower than 30%)”. The viability at 400 µM was 91% in [5] (24 h) and 81.1% in [5] (48 h).

In the case of `CCc1cc(C(=O)OC)c2ccc(-c3ccccc3)nn12` [Compound 5a, Methyl 7-ethyl-2-phenylpyrrolo[1,2-b]pyridazine-5-carboxylate], the “mitotic film / cell changes in root tips” value in series [3] (100 µM) is reported as “bridged telophase, disorganized metaphase”; in series [3] (1000 μM), “telophase with delayed chromosome, wavy cell walls; also recorded: no mitoinhibitory effect”. In series [6], this molecule displayed an LC50 at 48 h of 46.1 µM. In the series on Daphnia magna Straus (24 h), the “maximum lethality (L%)” value turned out to be 40%. In addition, the IC50 in series [1] (setting [8]) is not below 400 µM; in series [1] (setting [9]), 304 ± 4.85 µM. Besides, the viability at 50 µM in [5] (24 h) is 79%; in [5] (48 h), 65.3%. Also, the viability at 100 µM in series [5] (24 h) was determined as 78.1%; in series [5] (48 h), 58.2%. The viability at 200 µM in [5] (200 μM, 48 h) worked out at 52.5%. Besides, the viability at 400 µM in series [5] (24 h) came to 63.5%; in series [5] (48 h) it was 48.5%.

`CCc1cc(C(=O)OC)c2ccc(-c3ccc(F)cc3)nn12` [Compound 5b, Methyl 7-ethyl-2-(4-fluorophenyl)pyrrolo[1,2-b]pyridazine-5-carboxylate]: the “mitotic film / cell changes in root tips” value in series [3] (1000 μM) was “telophase in tropokinesis, normal, or disorganized metaphase”. In series [6], the LC50 at 48 h came to 463 µM. In the series with Daphnia magna Straus, the “toxicity on Daphnia magna” value is reported as “moderate toxicity”. Further, the IC50 in [1] (setting [8]), in series [1] (setting [9]), in [4], in [2] (setting [10]) and in series [2] (setting [11]) was not below 400 µM in each case. Besides, the viability at 400 µM in [4] was found to be 89.7%; in series [5] (24 h), 87.8%; in series [5] (48 h), 60.3%; in series [7], 78%. In addition, the viability at 100 µM in series [5] (48 h) was found to be 79.4%.

As to `CCc1cc(C(=O)OC)c2ccc(-c3ccc(Cl)cc3)nn12` [Compound 5c, Methyl 2-(4-chlorophenyl)-7-ethylpyrrolo[1,2-b]pyridazine-5-carboxylate], the LC50 at 48 h in series [6] was approximately 107 µM. For the same molecule, the “L% values (lethality)” value in the series with Daphnia magna Straus was “ND ** (all L% values were in range of 30 to 70%, independent of concentration)”. In addition, the IC50 in series [1] (setting [8]), in series [1] (setting [9]), in series [4], in series [2] (setting [10]) and in [2] (setting [11]) was not below 400 µM throughout. The viability at 400 µM in [4] was found to be 88.5%; in [5] (24 h), 68.6%; in series [5] (48 h), 61.1%.

(Values after paper PMC10380841, “Synthesis, Characterization and Cytotoxic Evaluation of New Pyrrolo[1,2-b]pyridazines Obtained via Mesoionic Oxazolo-Pyridazinones” (International Journal of Molecular Sciences, 2023).)
